Patent US20230399325A1, “SUCCINATE AND CRYSTAL FORM THEREOF AS THERAPEUTICS” (AUCENTRA THERAPEUTICS PTY LTD, priority 2020, published 2023)
Where two headings read alike, the source gives them in different places.

What was measured:
[1] = test system: A2780 ovarian cancer cells; experiment: Subcutaneous A2780 ovarian cancer xenograft; type: in vivo, female BALB/c nude mice; conditions: for Tumor volume (±S): 14 days; for Mean tumor growth inhibition (T/C): day 14
Description: Compound A succinate was also assessed for in vivo anti-tumor activity in subcutaneous xenografts. Briefly, female BALB/c nude mice were inoculated with A2780 ovarian cancer cells; when the mean tumour volume reached 150-200 mm^3, animals were randomized to groups. The animals (n=8 per group) were treated orally with vehicle (ultra-pure water), Compound A succinate (62.5, 125 or 250 mg/kg), or Palbociclib (75 mg/kg) once a day for 14 consecutive days. Mice were observed daily for signs of toxicity and weight loss, and tumour volume measured every other day. […] Palbociclib was efficacious at 75 mg/kg, resulting in T/C of 42.8% (Table 6).

U-87MG = experiment: Thymidine incorporation (3H-TdR) anti-proliferative assay, U-87MG; type: cell-based; conditions: Homo sapiens, Brain tumor
Description: (§1) The thymidine incorporation (3H-TdR) assay was used to assess the anti-proliferative effect of the Compound A succinate on tumor cell lines. The cells were treated with a series of concentrations of Compound A succinate for 24 hours; 3H-TdR was added, and the cells were continued in the incubator for further 48 hours. Scintillation fluid was added, read on a liquid scintillation counter, and the inhibiting cell growth by 50% (IC50) was calculated as shown in Table 5.

COLO-205 = experiment: Thymidine incorporation (3H-TdR) anti-proliferative assay, COLO-205; type: cell-based; conditions: Homo sapiens; COLO-205, Colon cancer
Description: as §1

MOLM-13 = experiment: Thymidine incorporation (3H-TdR) anti-proliferative assay, MOLM-13; type: cell-based; conditions: Homo sapiens; MOLM-13, Leukemia
Description: as §1

Raji = experiment: Thymidine incorporation (3H-TdR) anti-proliferative assay, Raji; type: cell-based; conditions: Homo sapiens, Lymphoma
Description: as §1

MV-4-11 = experiment: Thymidine incorporation (3H-TdR) anti-proliferative assay, MV-4-11; type: cell-based; conditions: Homo sapiens, MV4-11; MV-4-11, Leukemia
Description: as §1

[2] = Dynamic solubility in water and FaSSIF at 37° C.; type: physicochemical; conditions: for solubility at 1 h / solubility at 2 h / solubility at 4 h / solubility at 24 h: thermodynamic from solid, read-out: S: Solubility
[3] = Pharmacokinetic study of Compound A succinate in cynomolgus monkeys; type: in vivo; conditions: for AUC(0-inf) / AUC(0-t) / Cmax / clearance / half-life / Vd: cynomolgus monkey, plasma; for Vd: read-out: Vz; for F: succinate
Description: In a separate study, four cynomolgus monkeys were divided into two groups (n=2 per group), and given Compound A succinate at 2 mg/kg by i.v. and 24 mg/kg by i.g., respectively. The plasma samples were collected, analyzed and PK parameters were calculated as above.

[4] = Hygroscopicity by dynamic moisture adsorption (DVS); type: physicochemical; conditions: for Hygroscopicity: 25° C./80% RH, succinate
Description: Dynamic moisture adsorption (DVS) was used to evaluate the hygroscopicity of compound A and salt forms under the condition of 25° C. and 80% RH.

PANC-1 = experiment: Thymidine incorporation (3H-TdR) anti-proliferative assay, PANC-1; type: cell-based; conditions: Homo sapiens; PANC-1, Pancreatic cancer
Description: as §1

[5] = Solid-state stability, 14 days, HPLC; type: physicochemical
Description: Compound A salts and Compound A were tested for their solid-state stability under the conditions of 25° C./60% RH and 40° C./75% RH.

SK-OV-3 = experiment: Thymidine incorporation (3H-TdR) anti-proliferative assay, SK-OV-3; type: cell-based; conditions: Homo sapiens; SK-OV-3, Ovarian cancer
Description: as §1

MDA-MB-435S = experiment: Thymidine incorporation (3H-TdR) anti-proliferative assay, MDA-MB-435S; type: cell-based; conditions: Homo sapiens, Breast cancer
Description: as §1

[6] = test system: COLO 205 colorectal tumor xenograft; experiment: COLO 205 colorectal tumor xenograft; type: in vivo, mice; conditions: for Tumor volume (±S): 21 days; for Inhibition of tumor growth (T/C): day 21, succinate
Description: A separate study of Compound A succinate was conducted in COLO 205 colorectal tumor xenograft. The tumor-bearing mice (n=8) were treated orally with vehicle (ultra-pure water), or Compound A succinate (50 or 100 mg/kg) once daily for 21 days. As a positive control chemotherapy 5-FU (15 mg/kg) was given intraperitoneally. […] 5-FU was also effective with a T/C=47.2% (Table 7).

ZR-75-1 = experiment: Thymidine incorporation (3H-TdR) anti-proliferative assay, ZR-75-1; type: cell-based; conditions: Homo sapiens; ZR-75-1, Breast cancer
Description: as §1

PC-3 = experiment: Thymidine incorporation (3H-TdR) anti-proliferative assay, PC-3; type: cell-based; conditions: Homo sapiens; PC-3, Prostate cancer
Description: as §1

[7] = iv, i.v. 2 mg/kg, female cynomolgus monkeys
[8] = iv, i.v. 2 mg/kg, male cynomolgus monkeys
[9] = po, i.g. 24 mg/kg, female cynomolgus monkeys
[10] = po, i.g. 24 mg/kg, male cynomolgus monkeys

In the case of CCN1CCN(Cc2ccc(Nc3ncc(F)c(-c4sc(NC5CCCC5)nc4C)n3)nc2)CC1.O=C(O)CCC(=O)O [Compound A succinate, N-Cyclopentyl-5-(2-((5-((4-ethylpiperazin-1-yl)methyl)pyridin-2-yl)amino)-5-fluoropyrimidin-4-yl)-4-methylthiazol-2-amine succinate], the “Tumor volume (±S)” value ([1]; 62.5 mg/kg orally once a day) is reported as 1789.5 ± 131.5 mm^3, the “Mean tumor growth inhibition (T/C)” value ([1]; 62.5 mg/kg orally once a day) is reported as 44.8% and the “Tumor volume (±S)” value ([1]; 125 mg/kg orally once a day) is reported as 1009.6 ± 87.0 mm^3. The “Mean tumor growth inhibition (T/C)” value ([1]; 125 mg/kg orally once a day) was 70.8%, the “Tumor volume (±S)” value ([1]; 250 mg/kg orally once a day) was 546.4 ± 71.1 mm^3 and the “Mean tumor growth inhibition (T/C)” value ([1]; 250 mg/kg orally once a day) was 86.2%. For the same molecule, the IC50 (U-87MG) was 42.6 nM, the IC50 (COLO-205) was 839 nM and the IC50 (MOLM-13) was 260 nM. The IC50 (Raji) was 608 nM, the IC50 (MV-4-11) was 88.8 nM and the “solubility compared to Compound A free base” value ([2]; both FaSSIF and water) was “significantly increased”. The solubility at 1 h ([2]; FaSSIF) was 8200 µg/mL, the solubility at 2 h ([2]; FaSSIF) was 8100 µg/mL and the solubility at 4 h ([2]; FaSSIF) was 8100 µg/mL. For the same molecule, the solubility at 24 h ([2]; FaSSIF) was 1100 µg/mL, the solubility at 1 h ([2]; water, H2O) was 2000 µg/mL and the solubility at 2 h ([2]; water, H2O) was 2000 µg/mL. It also gave a solubility at 4 h ([2]; water, H2O) of 2100 µg/mL, a solubility at 24 h ([2]; water, H2O) of 2300 µg/mL and an AUC(0-inf) [3, 7] of 1190 ng·h/mL. It also gave an AUC(0-t) [3, 7] of 1170 ng·h/mL, a Cmax [3, 7] of 371 ng/mL and a clearance [3, 7] of 31 mL/min/kg. The half-life [3, 7] was 4.7 h, the Vd [3, 7] was 13.2 L/kg and the AUC(0-inf) [3, 8] was 872 ng·h/mL. It also gave an AUC(0-t) [3, 8] of 843 ng·h/mL, a Cmax [3, 8] of 240 ng/mL and a clearance [3, 8] of 39.1 mL/min/kg. It also gave a half-life [3, 8] of 5.3 h, a Vd [3, 8] of 17.7 L/kg and an AUC(0-inf) [3, 9] of 7740 ng·h/mL. The AUC(0-t) [3, 9] was 7700 ng·h/mL, the Cmax [3, 9] was 532 ng/mL and the half-life [3, 9] was 6 h. It also gave an AUC(0-inf) [3, 10] of 7420 ng·h/mL, an AUC(0-t) [3, 10] of 7370 ng·h/mL and a Cmax [3, 10] of 593 ng/mL. For the same molecule, the half-life [3, 10] was 6 h, the F ([3]; i.g. 24 mg/kg, female cynomolgus monkeys) was 54.9% and the F ([3]; i.g. 24 mg/kg, male cynomolgus monkeys) was 72.8%. The “Moisture absorbed at 25° C./80% RH” value [4] was 1.1%, the Hygroscopicity ([4]; listed as Succinate) was “Slightly hygroscopic” and the Hygroscopicity [4] was “minimal hygroscopicity”. For the same molecule, the IC50 (PANC-1) was 812 nM, the Purity ([5]; 25° C./60% RH) was 97.9 area % and the Relative purity ([5]; 25° C./60% RH) was 100.0 % of initial. For the same molecule, the Purity ([5]; 40° C./75% RH) was 97.9 area %, the Relative purity ([5]; 40° C./75% RH) was 100.0 % of initial and the IC50 (SK-OV-3) was 812 nM. For the same molecule, the IC50 (MDA-MB-435S) was 37.3 nM, the “Tumor volume (±S)” value ([6]; 50 mg/kg orally once daily) was 941.10 ± 80.90 mm^3 and the “Inhibition of tumor growth (T/C)” value ([6]; 50 mg/kg orally once daily, listed as compound A Succinate) was 36.26%. The “Inhibition of tumor growth (T/C)” value ([6]; 50 mg/kg orally once daily) was 36.3%, the “Tumor volume (±S)” value ([6]; 100 mg/kg orally once daily) was 443.72 ± 40.49 mm^3 and the “Inhibition of tumor growth (T/C)” value ([6]; 100 mg/kg orally once daily, listed as compound A Succinate) was 74.69%. The “Inhibition of tumor growth (T/C)” value ([6]; 100 mg/kg orally once daily) was 74.7%, the IC50 (ZR-75-1) was 35.7 nM and the IC50 (PC-3) was 168 nM.
